According to article PMC10682101, “In vitro pharmacological characterization of standard and new lysophosphatidic acid receptor antagonists using dynamic mass redistribution assay” (Frontiers in Pharmacology, 2023):
Read-outs that look alike come from different tables or passages of the source.

Legend:
CHO wild-type cells = assay: DMR assay in CHO wild-type cells (control); format: cell-based; conditions: for DMR response: CHO cells, compound 10 μM, mean ± s.e.m.
Protocol: Confluent cells were sub-cultured using trypsin/EDTA and used for experiments. Cells were seeded at a density of 20,000 cells/well in 30 µL into fibronectin-coated EnspireTM-LC 384-well plates and cultured for 20 h to form a confluent monolayer. On the day of the experiment, the cells were manually washed twice and maintained with assay buffer (HBSS with 20 mM HEPES, 0.01% BSA) for 90 min before DMR experiments. DMR was monitored in real time with a temporal resolution of 44 s throughout the assay. Experiments were performed at 37°C using an EnSight Multimode Plate Reader (PerkinElmer). The agonism protocol was as follows: before addition of the ligand, the DMR signal was measured for 5 min, and the average of the signals recorded during this period was set as the baseline (pm = 0). Compounds are added manually in a volume of 10 µL, and the triggered DMR signals were recorded for 60 min. The antagonism protocol was as follows: antagonists were added manually 25 min before reading the 5 min baseline. […] Responses were described in the form of picometer shift over time (seconds) following the subtraction of values from vehicle-treated wells. Maximum picometer (pm) modification (peak) and area under the curve (AUC) were used to determine the agonist response.

human LPA2 receptor [1] = target: T1, human LPA2 receptor (Homo sapiens, UniProt Q9HBW0); assay: Dynamic mass redistribution (DMR) assay in CHOLPA2 cells; conditions: for DMR effect per se: concentration–response up to highest concentration tested; for Agonism Emax / Agonism pEC50: negative DMR signal, peak, up to 10 µM (compound 35 up to 1 µM), °inactive at 10 μM; for DMR response: CHOLPA2 cells, compound 10 μM, mean ± s.e.m.; for Shift of the concentration–response curve to LPA: antagonism protocol, 1 µM
Protocol: Confluent cells were sub-cultured using trypsin/EDTA and used for experiments. Cells were seeded at a density of 20,000 cells/well in 30 µL into fibronectin-coated EnspireTM-LC 384-well plates and cultured for 20 h to form a confluent monolayer. On the day of the experiment, the cells were manually washed twice and maintained with assay buffer (HBSS with 20 mM HEPES, 0.01% BSA) for 90 min before DMR experiments. DMR was monitored in real time with a temporal resolution of 44 s throughout the assay. Experiments were performed at 37°C using an EnSight Multimode Plate Reader (PerkinElmer). The agonism protocol was as follows: before addition of the ligand, the DMR signal was measured for 5 min, and the average of the signals recorded during this period was set as the baseline (pm = 0). Compounds are added manually in a volume of 10 µL, and the triggered DMR signals were recorded for 60 min. […] Responses were described in the form of picometer shift over time (seconds) following the subtraction of values from vehicle-treated wells. Maximum picometer (pm) modification (peak) and area under the curve (AUC) were used to determine the agonist response.
All data were analyzed using GraphPad Prism 9.4 (La Jolla, CA, United States). Concentration–response curves were fitted using the four-parameter log-logistic equation. Data are expressed in the form mean ± s.e.m. across n experiments performed in duplicate. […] In practice, equiactive concentrations of the agonist in the absence ([A]) and presence ([A’]) of a non-competitive antagonist ([B]) were compared in a double reciprocal plot describing a straight line, and pKB was derived from the equation: pKB = log[(slope—1)/[B]]. […] Maximal effect data were analyzed using the Student’s t-test or a one-way ANOVA followed by Dunnett’s post-hoc test.

human LPA1 receptor [2] = target: T2, human LPA1 receptor (Homo sapiens, UniProt Q92633); assay: Dynamic mass redistribution (DMR) assay in CHOLPA1 cells; conditions: for EC50: Agonism pEC50, CHOLPA1, DMR; for Shift of the concentration–response curve to LPA: antagonism protocol; for Shift of the concentration–response curve to LPA / Effect on LPA maximal effect: 1 µM; for Agonism Emax: negative DMR signal; for Effect on LPA maximal effect: tested as antagonist; for DMR response: CHOLPA1 cells, compound 10 μM, mean ± s.e.m.
Protocol: All data were analyzed using GraphPad Prism 9.4 (La Jolla, CA, United States). Concentration–response curves were fitted using the four-parameter log-logistic equation. Data are expressed in the form mean ± s.e.m. across n experiments performed in duplicate. Agonist potency is expressed in the form pEC50, which is the negative logarithm to base 10 of the agonist molar concentration that produces 50% of the maximal possible effect of that agonist. […] In practice, equiactive concentrations of the agonist in the absence ([A]) and presence ([A’]) of a non-competitive antagonist ([B]) were compared in a double reciprocal plot describing a straight line, and pKB was derived from the equation: pKB = log[(slope—1)/[B]]. […] Maximal effect data were analyzed using the Student’s t-test or a one-way ANOVA followed by Dunnett’s post-hoc test.

[3] = test system: human lung fibroblast proliferation; design: method as in Qian et al., 2012; conditions: inhibiting LPA-induced human lung fibroblast proliferation; ref Qian et al., 2012; cited from earlier work
human LPA1 receptor [4] = target: T2, human LPA1 receptor; assay: Calcium mobilization assay in CHOLPA1 cells; conditions: for Effect per se: 1 µM, data not shown; for Shift of the concentration–response curve to LPA: antagonism protocol (compound 35, compound 20 at 1 µM); for Effect on LPA maximal effect: tested as antagonist
human LPA2 receptor [5] = target: T1, human LPA2 receptor; assay: Calcium mobilization assay in CHOLPA2 cells; conditions: for Effect per se / Shift of the concentration–response curve to LPA: 1 µM; for Effect per se: data not shown; for Agonism Emax / Agonism pEC50: #inactive at 1 μM; for Shift of the concentration–response curve to LPA: antagonism protocol
LPA2 receptor = target: LPA2 receptor; design: method as in Schiemann et al., 2012; conditions: inhibition of LPA effects on Ca2+ mobilization, cells expressing LPA2; ref Schiemann et al., 2012; cited from earlier work
LPA1 receptor [6] = test system: LPA1 receptor; design: method as in Shimizu and Nakayama, 2017; conditions: cAMP assay; ref Shimizu and Nakayama, 2017; cited from earlier work
LPA1 receptor [7] = test system: LPA1 receptor; design: method as in Ohta et al., 2003; conditions: GTPγS binding assay; ref Ohta et al., 2003; cited from earlier work
LPA1/3 [8] = test system: LPA1/3; design: method as in Ohta et al., 2003; conditions: ref Ohta et al., 2003; cited from earlier work
LPA1/3 [9] = target: LPA1/3; design: method as in Ohta et al., 2003; conditions: LPA1/3 antagonist; ref Ohta et al., 2003; read-out: Ki estimated from binding experiments; cited from earlier work
LPA1 receptor [10] = test system: LPA1 receptor; design: method as in Ohta et al., 2003; conditions: inositol phosphate test; ref Ohta et al., 2003; cited from earlier work
[11] = negative DMR signal (inverse agonism), peak, up to 10 µM (compound 35 up to 1 µM), °inactive at 10 μM
[12] = CHOLPA1, DMR, peak, up to 10 µM (compound 35 up to 1 µM), °inactive at 10 μM
[13] = Antagonism pKB (pKB/pA2), CHOLPA1, calcium mobilization, Gaddum method, LPA curve in absence and presence of 0.1 µM antagonist
[14] = CHOLPA1, calcium mobilization, *inactive at 0.1 µM
[15] = CHOLPA1, calcium mobilization, #inactive at 1 μM

T1 sequence (Q9HBW0 whole entry): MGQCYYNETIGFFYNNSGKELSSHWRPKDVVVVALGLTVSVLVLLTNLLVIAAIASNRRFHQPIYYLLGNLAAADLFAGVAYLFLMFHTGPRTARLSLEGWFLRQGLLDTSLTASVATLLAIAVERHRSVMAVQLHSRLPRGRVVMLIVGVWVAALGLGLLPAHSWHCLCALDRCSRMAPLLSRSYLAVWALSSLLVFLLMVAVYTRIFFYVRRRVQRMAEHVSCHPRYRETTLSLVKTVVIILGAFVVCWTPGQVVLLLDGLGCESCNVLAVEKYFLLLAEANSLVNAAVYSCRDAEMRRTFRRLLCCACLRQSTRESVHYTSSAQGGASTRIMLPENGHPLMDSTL
T2 sequence (Q92633 whole entry): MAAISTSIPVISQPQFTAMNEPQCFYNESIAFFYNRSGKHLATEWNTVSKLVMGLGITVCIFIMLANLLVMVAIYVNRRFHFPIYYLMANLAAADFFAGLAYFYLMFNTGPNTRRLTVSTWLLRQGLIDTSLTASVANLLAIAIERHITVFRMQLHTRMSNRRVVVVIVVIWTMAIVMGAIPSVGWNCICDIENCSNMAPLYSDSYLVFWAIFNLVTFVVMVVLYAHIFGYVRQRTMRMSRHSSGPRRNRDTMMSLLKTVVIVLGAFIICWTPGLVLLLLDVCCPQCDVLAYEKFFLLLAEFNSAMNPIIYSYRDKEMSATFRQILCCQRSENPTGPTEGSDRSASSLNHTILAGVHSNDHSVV

| SMILES | DMR response (CHO wild-type cells) [pm] | DMR effect per se (human LPA2 receptor [1]; CHOLPA2, DMR) | Agonism Emax (human LPA2 receptor [1]; CHOLPA2, DMR) | Agonism pEC50 (human LPA2 receptor [1]; CHOLPA2, DMR) | DMR response (human LPA2 receptor [1]) [pm] | EC50 (human LPA1 receptor [2]; [11]) [nM] | Shift of the concentration–response curve to LPA (human LPA1 receptor [2]; CHOLPA1, DMR) | Agonism Emax (human LPA1 receptor [2]; [12]) | Effect on LPA maximal effect (human LPA1 receptor [2]; CHOLPA1, DMR) | DMR response (human LPA1 receptor [2]) [pm] | Kb (human LPA1 receptor [4]; [13]) [nM] | Effect per se (human LPA1 receptor [4]; CHOLPA1, calcium mobilization) | Agonism Emax (human LPA1 receptor [4]; [14]) | Agonism pEC50 (human LPA1 receptor [4]; [14]) | Shift of the concentration–response curve to LPA (human LPA1 receptor [4]; CHOLPA1, calcium mobilization) | Effect on LPA maximal effect (human LPA1 receptor [4]; CHOLPA1, calcium mobilization) | Effect per se (human LPA2 receptor [5]; CHOLPA2, calcium mobilization) | Agonism Emax (human LPA2 receptor [5]; CHOLPA2, calcium mobilization) | Agonism pEC50 (human LPA2 receptor [5]; CHOLPA2, calcium mobilization) | Shift of the concentration–response curve to LPA (human LPA2 receptor [1]; CHOLPA2, DMR) | other results |
| --- | --- | --- | --- | --- | --- | --- | --- | --- | --- | --- | --- | --- | --- | --- | --- | --- | --- | --- | --- | --- | --- |
| Cc1nnn(-c2ccc(-c3ccc(C4(C(=O)O)CC4)cc3)cc2)c1NC(=O)O[C@H](C)c1ccccc1 [RO 6842262] | −36 ± 12 | inactive per se, or slightly active only at the higher concentration tested | Inactive° | Inactive° | 3 ± 21 | 49 | shifted the concentration–response curve to LPA to the right | −80 ± 16 pm | without changing the maximal effect | −66 ± 16 | 2.04 | did not produce any effect per se | Inactive* | Inactive* | shifted the concentration–response curve to LPA to the right | reduced the LPA maximal effect in a concentration-dependent manner | did not produce any effect per se | Inactive^# | Inactive^# |  | Potency relative to KI 16425 [3]: 10 fold; LPA1 selectivity (vs. LPA2) (human LPA1 receptor [4]; assay not specified): > 30 fold |
| O=C1C[C@@](O)(C(F)(F)F)c2c(-c3cccc(F)c3)n[nH]c2N1 [Compound 20] | −26 ± 8 |  | −94 ± 6 pm |  | −119 ± 25 |  | did not shift the concentration–response curve to LPA to the right | Inactive° |  | −31 ± 17 |  | did not produce any effect per se |  |  | did not shift the concentration–response curve to LPA to the right |  | did not produce any effect per se | Inactive^# | Inactive^# | shifted the concentration–response curve to LPA to the right | DMR effect per se (CHO wild-type cells; CHO wild-type cells, 10 µM): failed to evoke effects per se; EC50 (human LPA2 receptor [1]): 148 nM; Agonism Emax (human LPA2 receptor [1]; CHOLPA2, DMR, listed as Merck compound 20): −94 pm; Time of maximum peak modification of the DMR response after administration (human LPA2 receptor [1]; CHOLPA2, DMR, slow onset): ~60 min; Agonism pEC50 (human LPA1 receptor [2]; CHOLPA1, DMR, negative DMR signal (inverse agonism), peak, up to 10 µM (compound 35 up to 1 µM), °inactive at 10 μM): Inactive°; DMR effect per se (human LPA1 receptor [2]; CHOLPA1, DMR, up to highest concentration tested (10 μM; compound 35 1 µM)): inactive up to 10 μM; Kb (human LPA1 receptor [4]; Antagonism pKB/pA2, CHOLPA1, calcium mobilization, LPA curve in absence and presence of 1 µM compound): > 1000 nM; Agonism Emax (human LPA1 receptor [4]; [15]): Inactive^#; Agonism pEC50 (human LPA1 receptor [4]; [15]): Inactive^#; Kb (human LPA2 receptor [5]): 56.2 nM; Shift of the concentration–response curve to LPA (human LPA2 receptor [5]; CHOLPA2, calcium mobilization): shifted the concentration–response curve to LPA to the right; Effect on LPA maximal effect (human LPA2 receptor [5]; CHOLPA2, calcium mobilization, tested as antagonist): induced a reduction in LPA maximal effects; pIC50 (LPA2 receptor): > 6 |
| Cc1noc(-c2ccc(CSCCC(=O)O)cc2)c1NC(=O)OC(C)c1ccccc1Cl (stereo not shown) [KI 16425] | −42 ± 7 | inactive per se, or slightly active only at the higher concentration tested | Crc incomplete | Crc incomplete | −95 ± 4 | 67.6 | shifted the concentration–response curve to LPA to the right | −110 ± 17 pm | without changing the maximal effect | −101 ± 7 | 3.09 | did not produce any effect per se | Inactive* | Inactive* | shifted the concentration–response curve to LPA to the right | reduced the LPA maximal effect in a concentration-dependent manner | did not produce any effect per se | Inactive^# | Inactive^# | shifted the concentration–response curve to LPA to the right | Inverse agonism activity (LPA1 receptor [6]): slight degree of inverse agonism activity; Antagonism pKB (pKB/pA2) (human LPA1 receptor [4]; CHOLPA1, calcium mobilization, Gaddum method, LPA curve in absence and presence of 0.1 µM antagonist): ~8.5; Shift of the concentration–response curve to LPA (human LPA2 receptor [5]; CHOLPA2, calcium mobilization): shifted the concentration–response curve to LPA to the right; Inverse agonism activity (LPA1 receptor [7]): slight degree of inverse agonism activity; Selectivity for LPA1/3 vs. LPA2 (LPA1/3 [8]): 20 fold; Ki (LPA1/3 [9]): 670 nM; Inverse agonism activity (LPA1 receptor [10]): this has not been replicated |
